Test results from patent US20030118985A1, “Mouse monoclonal antibody (5-21-3) to human immunodeficiency virus gp41 protein” (priority 1997, published 2003).

Tests used:
[1] = test system: binding of antibody 5-21-3 to rp41; assay: Binding inhibition assay: peptides inhibit binding of 5-21-3 to rp41; set-up: species or system HIV I; conditions: for Molar Ratio at 50% inhibition of 5-21-3 binding: mean of two experiments, 0.4 pmol 5-21-3 IgG per well
Protocol: Additional evidence for the conformationl nature of the 5-21-3 epitope was obtained using binding inhibition studies, in which synthetic peptides were ranked for their ability to inhibit binding of 5-21-3 to rp41. First, the Fab dimer of an anti-gp41 monoclonal antibody was prepared by conventional methods (Goding et al., supra). Then 100 ul of a 1 mg/ml solution of the Fab dimer in bicarbonate buffer (pH 9.6) was coated onto Immulon II microtiter plates for 1 hr at 37° C. After washing with PBS containing 0.05% Tween 20, the plates were overcoated with 200 ul of 1.0% ovalbumin in bicarbonate buffer (pH 9.6) for 1 hr at 30° C. After washing, 100 ul of rp41 enriched E. coli lysate (as described in Example 3), diluted appropriately in PBS containing 0.05% Tween 20, were allowed to bind to the Fab dimer for 2 hr at 30° C. The plates were washed and stored at 4° C.
Intact monoclonal antibody 5-21-3 IgG (purified from tissue culture fluid supporting growth of the cloned cell line 5-21-3) was titrated against the bound rp41 on the plate, and an antibody concentration was selected which yielded an A492 value of 2.0-3.0. Usually, 0.4 pmol (0.06 ug) of 5-21-3 IgG per microtiter well was employed in these assays. Stock solutions of 5-21-3 IgG were prepared in PBS containing 0.1% Triton X-100 and 0.1% SDS. Dilutions of synthetic peptides were made in the same buffer (SDS was included in these experiments to keep peptides soluble at high concentrations).
The binding inhibition assay was performed by combining 0.15 ml of 1.2 ug/ml 5-21-3 antibody stock solution with 0.15 ml of peptide at a selected peptide concentration, and incubating the reaction mixture 1 hr at room temp. Then 0.1 ml aliquots of each reaction mixture were added to each of two wells in the microtiter tray. After a 1 hr incubation at room temp., the plates were washed, and HRPO conjugated Goat anti-mouse IgG Fc was added for 1 hr at room temp. The plates were washed, and addition of OPD for color development identified the relative amounts of 5-21-3 bound to rp41 in the microtiter wells. The reaction was stopped by addition of 100 ul of 1N H2SO4, and the plates were read on a Dynatech II microtiter plate reader.

[2] = test system: monoclonal antibody 5-21-3; assay: Immunoprecipitation of [125I] synthetic peptides by 5-21-3; format: binding, mouse; conditions: for SPECIFIC PRECIPITATION (CPM) by 5-21-3 / x-fold increase of specific over non-specific precipitation, 5-21-3: 5-21-3 10 μg/0.2 ml, second antibody precipitation; for SPECIFIC PRECIPITATION (CPM) by 5-21-3: PBS, 0.1% Triton X-100, 1.0% BSA, carrier serum; for x-fold increase of specific over non-specific precipitation, 5-21-3: vs normal mouse IgG
Protocol: (§1) Synthetic peptides were radiolabeled with ^125I (Amersham) by the chloramine T method (N. M. Hunter, “Radioimmunoassay” in D. M. Weir, Ed., Handbook of Experimental Immunology, [Blackwell Scientific Publications, 1973]). Generally, 2-6 ul of 100 mCi/ml ^125I were added to 10-50 ug of peptide in PBS, pH 7.4. Approximately 10 ug of freshly prepared (1 mg/ml in PBS) chloramine T were added to the mixture maintained at 4° C. After 5 min., [^125I]peptide was separated from free ^125I by passage of the reaction mixture through a 3 ml (bed volume) column of Biogel P-6 or P-2, as required. Fractions (200 ul each) containing [^125I]peptide were pooled and diluted into PBS containing 20% fetal calf serum. Rough estimations of ^125I cpm bound to peptide were made by acid precipitation. An aliquot of labeled peptide was diluted into 1 ml of ice cold 50% trichloroacetic acid (TCA) overlaying a 0.45 um filter (made of mixed cellulose esters) set on a scintered glass filter connected to a vacuum apparatus. Precipitated protein was fixed onto the filter by application of vacuum, and filters were washed with ice-cold 50% TCA. Background cpm adhering non-specifically to the filter were estimated by repeating the procedure using a non-precipitating buffer. Amounts of peptide, ^125I, chloramine T, and composition of column eluting buffer were subject to change depending on conditions required to maintain solubility of each peptide.
(§2) Synthetic peptides radiolabeled with ^125I were diluted into PBS (pH 7.4) containing 0.1% Triton X-100 (or other detergents where indicated) and 1.0% BSA, to yield approximately 2.5-5×10^5 acid-precipitable cpm per 0.1 ml. Purified monoclonal IgG 5-21-3 and 10-15-63 were employed in the assay. Monoclonal antibodies were diluted into PBS containing 0.1% Triton X-100 (or other detergents where indicated), 1.0% BSA, and 2% normal mouse serum as a carrier immunoglobulin. Immune rabbit serum (anti-P58-130) was diluted appropriately into the same buffer except that normal rabbit serum (2%) was substituted for normal mouse serum as the carrier immunoglobulin. A reaction mixture comprising 0.1 ml [^125I] peptide (5×10^5 cpm/0.1 ml) and 0.1 ml diluted antibody was incubated 1 hr at 40° C., followed by addition of 0.1 ml of a precipitating antibody, either goat anti-mouse IgG, or goat anti-rabbit IgG, corresponding to the primary antibody. The reaction mixture was incubated 1 hr at 40° C. and then overnight at 4° C. […] Precipitation assays employing Protein A-Sepharose as the precipitating reagent were performed in a similar manner, except that normal sera were omitted from the reaction mixtures.

[3] = test system: monoclonal antibody 10-15-63; assay: Immunoprecipitation of [125I] synthetic peptides by 10-15-63; format: binding, mouse; conditions: for SPECIFIC PRECIPITATION (CPM) by 10-15-63 / x-fold increase of specific over non-specific precipitation, 10-15-63: 10-15-63 10 μg/0.2 ml, second antibody precipitation; for SPECIFIC PRECIPITATION (CPM) by 10-15-63: PBS, 0.1% Triton X-100, 1.0% BSA, carrier serum; for x-fold increase of specific over non-specific precipitation, 10-15-63: vs normal mouse IgG
Protocol: as §1, §2

[4] = test system: Rabbit (R) anti-P58-130 serum; assay: Immunoprecipitation of [125I] synthetic peptides by rabbit anti-P58-130 serum; format: binding; conditions: for SPECIFIC PRECIPITATION (CPM) by RαP58-130 / x-fold increase of specific over non-specific precipitation, RαP58-130: rabbit anti-P58-130 serum 20 ul/0.2 ml, second antibody precipitation; for x-fold increase of specific over non-specific precipitation, RαP58-130: vs normal rabbit serum
Protocol: as §1, §2

[5] = test system: monoclonal antibody 5-21-3; assay: Immuno-dot blot of synthetic peptides with 5-21-3; format: binding, mouse; conditions: 25 ug/ml 5-21-3; mild washing procedures
Description: The western Blot procedure described in Example 1 was employed for development of immuno-dot blots using synthetic peptides, except that synthetic peptides were fixed to nitrocellulose by direct application using Drummond lambda pipettes, and air dried prior to blocking with 20% fetal calf serum in PBS (pH 7.4).

| Substance | inhibition of 5-21-3 binding to rp41, in words [1] | Molar Ratio at 50% inhibition of 5-21-3 binding [1] | binding of [125I]peptide by 5-21-3 (immunoprecipitation), in words [2] | SPECIFIC PRECIPITATION (CPM) ([2]; 5-21-3 1.0 μg/ml final) | x-fold increase of specific over non-specific precipitation ([2]; 5-21-3 1.0 μg/ml final) | SPECIFIC PRECIPITATION (CPM) by 5-21-3 [2] | x-fold increase of specific over non-specific precipitation, 5-21-3 [2] | SPECIFIC PRECIPITATION (CPM) ([2]; 5-21-3 10.0 μg/ml final) | x-fold increase of specific over non-specific precipitation ([2]; 5-21-3 10.0 μg/ml final) | SPECIFIC PRECIPITATION (CPM) ([2]; 5-21-3 100.0 μg/ml final) | x-fold increase of specific over non-specific precipitation ([2]; 5-21-3 100.0 μg/ml final) | SPECIFIC PRECIPITATION (CPM) ([3]; 10-15-63 1.0 μg/ml final) | x-fold increase of specific over non-specific precipitation ([3]; 10-15-63 1.0 μg/ml final) | SPECIFIC PRECIPITATION (CPM) by 10-15-63 [3] [CPM] | x-fold increase of specific over non-specific precipitation, 10-15-63 [3] | SPECIFIC PRECIPITATION (CPM) ([3]; 10-15-63 10.0 μg/ml final) | x-fold increase of specific over non-specific precipitation ([3]; 10-15-63 10.0 μg/ml final) | SPECIFIC PRECIPITATION (CPM) ([3]; 10-15-63 100.0 μg/ml final) | SPECIFIC PRECIPITATION (CPM) by RαP58-130 [4] | x-fold increase of specific over non-specific precipitation, RαP58-130 [4] | further results |
| --- | --- | --- | --- | --- | --- | --- | --- | --- | --- | --- | --- | --- | --- | --- | --- | --- | --- | --- | --- | --- | --- |
| IHSLIEESQNQQEKNEQELLELDK [P131-154] | could not be demonstrated | >50,000 pmoles peptide/pmoles 5-21-3 | unable to bind | 0 | (0) x-fold | 970 CPM | (1.1) x-fold | 0 CPM | (0) x-fold | 0 CPM | (0) x-fold | 0 | (0) x-fold | 0 | (<1) x-fold | 0 | (0) x-fold | 112 | 0 CPM | (<1) x-fold | 5-21-3 concentration required to demonstrate binding of the peptide ([2]; immunoprecipitation, Table 5): could not be demonstrated; x-fold increase of specific over non-specific precipitation ([3]; 10-15-63 100.0 μg/ml final): (1.1) x-fold |
| IHSLIEESQNQQEKNEQELLELDKWANLWNWLNITNWLWYIKLFI [P131-175] | definite inhibitor | 18,815 pmoles peptide/pmoles 5-21-3 | Little or no binding activity |  |  | 317 CPM | (1.6) x-fold |  |  |  |  |  |  | 188 | (1.4) x-fold |  |  |  | 0 CPM | (<1) x-fold |  |
| NH2-Asp-Arg-Glu-Ile-Asn-Asn-Tyr-Thr-Ser-Leu-Ile-His-Ser-Leu-Ile-Glu-Glu -Ser-Gln-Asn-Gln-Gln-Glu-Lys-Asn-Glu-Gln-Glu-Leu-Leu-Glu-Leu-Asp-Lys-COOH (H-DREINNYTSLIHSLIEESQNQQEKNEQELLELDK-OH) [P121-154] | potent inhibitor | 1,494 pmoles peptide/pmoles 5-21-3 | recognized by 5-21-3 | 0 | (0) x-fold | 40,717 CPM | (31) x-fold | 1,113 CPM | (2.3) x-fold | 18,984 CPM | (13) x-fold | 0 | (0) x-fold | 371 | (1.3) x-fold | 0 | (0) x-fold | 0 | 310,419 CPM | (24) x-fold | fold less active than P67-154 in binding inhibition [1]: 20 fold; fold restoration of binding inhibition activity relative to P131-154 [1]: 20-65 fold; x-fold increase of specific over non-specific precipitation ([3]; 10-15-63 100.0 μg/ml final): (0) x-fold; immuno-dot blot reactivity with 5-21-3 [5]: faint, diffuse reaction; precipitation of [125I]peptide by rabbit anti-P58-130, in words [4]: strong precipitator |
| YNYTSLIHSLIEESQNQQEKNEQELLELDKWANLWNWL [P126-162] | roughly equivalent to that of P121-154 | 1,585 pmoles peptide/pmoles 5-21-3 | recognized by 5-21-3 | 0 | (0) x-fold | 11,540 CPM | (3.4) x-fold | 295 CPM | (1.1) x-fold | 4,924 CPM | (1.6) x-fold | 0 | (0) x-fold | 0 | (<1) x-fold | 0 | (0) x-fold | 0 | 0 CPM | (<1) x-fold | x-fold increase of specific over non-specific precipitation ([3]; 10-15-63 100.0 μg/ml final): (0) x-fold; immuno-dot blot reactivity with 5-21-3 [5]: additional 5-21-3 reactivity was observed |
